BindingDB's records for doi:10.1021/jm025502x (2002)

Legend:
[1] = In vitro inhibitory concentration against Methionyl-tRNA synthetase in a pyrophosphate exchange assay
[2] = target: Methionyl-tRNA synthetase (Staphylococcus aureus); test: In vitro inhibitory concentration against Staphylococcus aureus Methionyl-tRNA synthetase

IC50 [1]	IC50 [2]	SMILES
0.5 µM		Oc1cc(NCCCNCc2ccc(Cl)c(Cl)c2)nc2ccccc12 [2-[3-(3,4-Dichloro-benzylamino)-propylamino]-1H-quinolin-4-one]
0.001 µM		Oc1cc(NCCCNC2CCNc3c(Br)cc(Br)cc32)nc2ccccc12 (stereo not drawn) [2-[3-(6,8-Dibromo-1,2,3,4-tetrahydro-quinolin-4-ylamino)-propylamino]-1H-quinolin-4-one]
	0.012 µM	CCc1cc(I)c2c(c1)C(NCCCNc1cc(O)c3ccccc3n1)CCN2 (stereo not drawn) [2-[3-(6-Ethyl-8-iodo-1,2,3,4-tetrahydro-quinolin-4-ylamino)-propylamino]-1H-quinolin-4-one]
